The source of these data is ChEMBL document CHEMBL1151624, “Isolation of artemisinin (qinghaosu) from Artemisia annua growing in the United States” (J Nat Prod, 1984).

Each structure is given as a SMILES string. ≈ marks a conversion by molar mass, not a printed value.

The subject of experiment [1] is Plasmodium falciparum. Kind of experiment: Antimalarial activity against chloroquine-sensitive Plasmodium falciparum CAMP by semiautomated micro dilution assay. The format is functional, organism-based.
In experiment [2] the test system is Plasmodium falciparum. Briefly: Antimalarial activity against chloroquine-resistant Plasmodium falciparum Smith by semiautomated micro dilution assay. The format is functional, organism-based.
In another experiment the test system is Proteus sp. Kind of experiment: Antimicrobial activity against Proteus Sp. The format is functional. The note with it: Proteus sp. (in: enterobacteria).
In another experiment the test system is Neisseria meningitidis. Kind of experiment: Antimicrobial activity against Neisseria meningitidis. The experiment is classed as functional.
For another experiment, the system named is Neisseria gonorrhoeae. Kind of experiment: Antimicrobial activity against Neisseria gonorrhoeae. The format is functional.
The test system of the next experiment is Staphylococcus aureus. Briefly: Antimicrobial activity against Staphylococcus aureus. The experiment is classed as functional.
The next experiment deals with Enterococcus faecalis. Kind of experiment: Antimicrobial activity against Streptococcus faecalis. The experiment is classed as functional.
A further experiment deals with Klebsiella. Briefly: Antimicrobial activity against Klebsiella. The experiment is classed as functional.
The subject of another experiment is Shigella dysenteriae. Kind of experiment: Antimicrobial activity against Shigella dysenteriae. The experiment is classed as functional.
The test system of the next experiment is Escherichia coli. Briefly: Antimicrobial activity against Escherichia coli. The format is functional.
For the next experiment, the system named is Serratia marcescens. Briefly: Antimicrobial activity against Serratia marcescens. The format is functional.

One may read the IC50 as the concentration at which inhibition is half-maximal. Read a low IC50 as higher potency. `OC(c1cc(C(F)(F)F)nc2c(C(F)(F)F)cccc12)C1CCCCN1` (stereo not drawn) [MEFLOQUINE]: the IC50 in the experiment on Plasmodium falciparum [1] was found to be 0.0035 µg/mL (≈ 0.00925 µM); with Plasmodium falciparum [2], 0.0025 µg/mL (≈ 0.00661 µM).

The MIC is the smallest concentration in the dilution series that meets the test's criterion for growth inhibition. The low end stands for a more susceptible organism, the high end for a less susceptible organism. For the molecule `C[C@@H]1CC[C@H]2[C@@H](C)C(=O)O[C@@H]3O[C@@]4(C)CC[C@@H]1[C@]32OO4` [ARTEMISININ], the MIC was greater than 32 µg/mL against Proteus sp.; greater than 1 µg/mL in the experiment on Neisseria meningitidis; greater than 1 µg/mL with Neisseria gonorrhoeae; greater than 32 µg/mL against Staphylococcus aureus; greater than 32 µg/mL with Enterococcus faecalis; greater than 32 µg/mL against Klebsiella. Also, the MIC with Shigella dysenteriae, in the experiment on Escherichia coli and with Serratia marcescens was greater than 32 µg/mL throughout. Further, the IC50 in the experiment with Plasmodium falciparum [1] and with Plasmodium falciparum [2] was less than 0.0034 µg/mL each time.
